Results on four molecules are retold here after patent publication US4769321A, “Assay method and reagent therefor” (priority 1979, dated 1988).

The subject of experiment [1] is PK(I). The experiment in a line: Detection of ATP by activation of the PFK/PK(I) feedback system (Example B2). In kind it is biochemical, E. coli. As to conditions: 0.0001 to 0.5 mM ATP; 340 nm, 30° C. As for the experimental part:
Cultures of E. coli strain K1-1 were grown on a synthetic medium containing essential nutrients and glycerol as carbon source, until well into their logarithmic phase of growth. The cells were harvested, washed by centrifugation and resuspended in a sonication buffer of 5 mM phosphate, 1 mM EDTA, 2 mM mercaptoethanol pH 7.5 in an amount of approximately 20 mg dry weight per ml. They were then disrupted with an MSE ultrasonic disintegrator for 4 minutes (in 30 seconds bursts while cooled). The resulting crude extract was separated from cell debris by centrifugation. As well as containing pyruvate kinase (I) this extract also contained an interfering isoenzyme with different properties, and also a number of other interfering enzyme activities. It was found, however, that it was possible to remove these contaminants by heating the extract to 55° C. for 20-60, for example 45, minutes. This is the source of pyruvate kinase (I) referred to in the following examples.
In this example the same basic system described in Example 1 was again used, but instead of the system being used to detect an enzyme capable of giving rise to ATP, the pre-existing ATP in a solution was assayed, using a PK(I) extract which had been prepared by heating at 55° C. for 60 minutes.
As in the previous example, the assays were carried out in quartz spectrophotometer cuvettes for use with 1.0 ml assay mixtures. […]

The subject of experiment [2] is creatine kinase. The experiment in a line: Creatine phosphate detection with creatine kinase as reagent (Example B7). In kind it is biochemical, bovine. Particulars: for O.D. Units (340 nm) change/minute at 1.5 minutes: CK 0.05 U, 30° C., nil CP gave 0.0011. The procedure:
Mixtures were made up in 10 mM dimethyl-glutamate buffer at pH 6.8 and containing 5 mM MgCl2 and 0.1% in bovine serum albumin as follows:
In each case the components were combined from stock solutions in a quartz cuvette of 1 ml capacity, mixed and immediately monitored for NADH oxidation by following their optical density at 340 nm and 30° C.

For experiment [3], the system named is E. coli Type I pyruvate kinase (PK). Particulars: in the presence of certain amounts of phosphoenolpyruvate; cited from earlier work.
In experiment [4] the test system is alkaline phosphatase. The experiment in a line: Detection of alkaline phosphatase by antibody-coated wells and NAD cycle (Example A1). As to conditions: ten-fold dilutions 1:1000 to 1:10^7; pH 9.3; room temperature. It counts as biochemical, bovine (calf). The procedure: The alkaline phosphatase used in this example is as obtainable from the Sigma Chemical Co (London) Ltd Type VII from bovine (calf) intestine catalogue number P4502 (1981). Antibody is raised against this material by any of the standard procedures. For example 0.5 mg of the alkaline phosphatase suspension is taken and made to 1.0 ml with distilled water and shaken gently. One ml of Freund's complete adjuvant is then added and the mixture homogenised through a connector between two hypodermic syringes back and forth until a stable water-in-oil emulsion is produced. Approximately 1 ml of the emulsion is then injected intramuscularly into each hindquarter of a rabbit. The injections are repeated two and four weeks later with the same amount of alkaline phosphatase but without the added Freund's adjuvant. Blood is then taken from the immunised animal two weeks after the last injection and the immune-serum taken off after clotting has taken place. An IgG fraction of the serum is then obtained by the standard procedure of DEAE Cellulose Chromatography set out in Methods in Immunology by D. H. Cambell, J. S. Garvey, N. E. Cremer and D. H. Sussdorf, 2nd Edition (1970) pages 193-197, published by W. A. Benjamin, Reading Mass. […] The plates are now ready for use. […]

As for `Nc1ncnc2c1ncn2[C@@H]1O[C@H](COP(=O)(O)OP(=O)(O)OP(=O)(O)O)[C@@H](O)[C@H]1O` [ATP, adenosine 5'-triphosphate], the “initiation and rate of NADH oxidation vs ATP concentration” value in experiment [1] was “The higher concentrations of ATP gave rise to an earlier initiation of observable NADH oxidation and subsequently increased in their rate faster than the lower concentrations”.
On to `CN(CC(=O)O)C(=N)NP(=O)(O)O` [CP, creatine phosphate], for which, in experiment [2], the “dependence of the system on creatine phosphate” value was “dependent on the presence of creatine phosphate and the concentration thereof”. Also, the “O.D. Units (340 nm) change/minute at 1.5 minutes” value is recorded as 0.0070 O.D. Units (340 nm) change/min in experiment [2] (CP concentration 0.4 mM) and 0.0118 O.D. Units (340 nm) change/min in experiment [2] (CP concentration 4.0 mM).
`O=C(COP(=O)(O)O)[C@@H](O)[C@H](O)[C@H](O)COP(=O)(O)O` [fructose-1,6-diphosphate]: the “activation of E. coli Type I pyruvate kinase” value in experiment [3] is “very potent activator”.

B1: alkaline phosphatase: Sigma Type VII from bovine (calf) intestine catalogue number P4502 (protein, UniProt P19111 20-506, looked up)
Intestinal-type alkaline …: LVPVEEEDPAFWNRQAAQALDVAKKLQPIQTAAKNVILFLGDGMGVPTVTATRILKGQMNGKLGPETPLAMDQFPYVALSKTYNVDRQVPDSAGTATAYLCGVKGNYRTIGVSAAARYNQCKTTRGNEVTSVMNRAKKAGKSVGVVTTTRVQHASPAGAYAHTVNRNWYSDADLPADAQMNGCQDIAAQLVNNMDIDVILGGGRKYMFPVGTPDPEYPDDASVNGVRKRKQNLVQAWQAKHQGAQYVWNRTALLQAADDSSVTHLMGLFEPADMKYNVQQDHTKDPTLQEMTEVALRVVSRNPRGFYLFVEGGRIDHGHHDDKAYMALTEAGMFDNAIAKANELTSELDTLILVTADHSHVFSFGGYTLRGTSIFGLAPSKALDSKSYTSILYGNGPGYALGGGSRPDVNDSTSEDPSYQQQAAVPQASETHGGEDVAVFARGPQAHLVHGVEEETFVAHIMAFAGCVEPYTDCNLPAPTTATSIPD
In the case of B1, the “colour change in wells vs alkaline phosphatase concentration” value in experiment [4] is given as “change of colour from pale yellow to black much faster than did those which had been exposed to a lower concentration”.
